# Measurements as given in patent publication US5635527A, “Carboxylic acid compound having condensed ring, salt thereof and pharmaceutical use thereof” (The Green Cross Corporation, priority 1994, dated 1997).
# Test system: human platelets
# Assay: suppressive activity on ADP aggregation of human platelets
# Format: cell-based
# Details: platelet rich plasma, ADP 1-5 μM, compound added 2 minutes before ADP, read-out: Suppression of platelet aggregation (IC50)
# Procedure: Determination of suppressive activity on ADP aggregation of human platelets
# Platelet rich plasma was prepared from the blood taken from healthy humans by centrifugation in the presence of 0.38% sodium citrate, and used for the determination.
# Two minutes after the test compounds shown in Table 1 were added to the above-mentioned platelet rich plasma, ADP (adenosine-5'-diphosphate) (1-5 μM) having a concentration at which primary aggregation alone is observed was added, and the suppression of ADP aggregation by the compounds was evaluated. The percent suppression was determined by varying the concentration of the compounds and the concentration of the compound at which the aggregation was suppressed by 50% (IC50) was calculated, which was taken as the activity of the compound.
row,Compound,IC50 [nM]
1,"N=C(NCc1ccccc1)c1ccc2oc(C(=O)Nc3ccc(OCC(=O)O)cc3)cc2c1 [Compound 5, 4-[(5-Benzylamidino-2-benzofuranyl)carbonylamino]phenoxy-acetic acid]",100
2,"N=C(N)c1ccc2cc(C(=O)Nc3ccc(OCC(=O)O)cc3)oc2c1 [Compound 12, 4-[(6-Amidino-2-benzofuranyl)carbonylamino]phenoxyacetic acid]",230
3,"CN(C(=O)c1cc2cc(C(=N)N)ccc2o1)c1ccc(OCC(=O)O)cc1 [Compound 21, 4-[(5-Amidino-2-benzofuranyl)carbonyl-N-methylamino]phenoxyacetic acid]",100
4,"COC(=O)CCc1ccc(NC(=O)c2cc3cc(C(=N)N)ccc3o2)cc1 [Compound 35, Methyl 3-[4-[(5-amidino-2-benzofuranyl)carbonylamino]phenyl]propionate]",500
5,"N=C(N)c1ccc2oc(C(=O)Nc3ccc(NCC(=O)O)cc3)cc2c1 [Compound 70, [4-[(5-Amidino-2-benzofuranyl)carbonylamino]anilino]acetic acid]",150
6,"CCCCC(=O)N(CC(=O)O)c1ccc(NC(=O)c2cc3cc(C(=N)N)ccc3o2)cc1 [Compound 74, [4-[(5-Amidino-2-benzofuranyl)carbonylamino]-N-(n-valeryl)anilino]acetic acid]",230
7,"Cn1c(C(=O)Nc2ccc(OCC(=O)O)cc2)cc2ccc(C(=N)N)cc21 [Compound 118, 4-[(6-Amidino-1-methyl-2-indolyl)carbonylamino]phenoxyacetic acid]",200
8,"N=C(N)c1ccc2sc(C(=O)Nc3ccc(OCC(=O)O)cc3)cc2c1 [Compound 134, 4-[(5-Amidinobenzo[b]thien-2-yl)carbonylamino]phenoxyacetic acid]",700
9,"N=C(N)c1ccc2oc(C(=O)OC3CCC(OCC(=O)O)CC3)cc2c1 (stereo not shown) [Compound 152, [4-[(5-Amidino-2-benzofuranyl)carbonyloxy]cyclohexyloxy]acetic acid]",80
10,CCOC(=O)CC[C@H]1CC[C@H](NC(=O)c2cc3cc(C(=N)N)ccc3o2)CC1 [Compound 159],70
11,"N=C(N)c1ccc2oc(C(=O)N[C@H]3CC[C@H](CCC(=O)OCCO)CC3)cc2c1 [Compound 163, 2-Hydroxyethyl trans-3-[4-[(5-amidino-2-benzofuranyl)carbonylamino]cyclohexyl]propionate]",450
12,"N=C(N)c1ccc2oc(C(=O)N[C@H]3CC[C@H](OCC(=O)OCCO)CC3)cc2c1 [Compound 164, 2-Hydroxyethyl trans-[4-[(5-amidino-2-benzofuranyl)carbonylamino]cyclohexyloxy]acetate]",180
13,"COc1c(C(=O)N[C@H]2CC[C@H](OCC(=O)O)CC2)oc2ccc(C(=N)N)cc12 [Compound 184, trans-[4-[(5-Amidino-3-methoxy-2-benzofuranyl)carbonyl-amino]cyclohexyloxy]acetic acid]",150
14,"CCOC(=O)CCN1CCC(NC(=O)c2cc3cc(C(=N)N)ccc3o2)CC1 [Compound 191, Ethyl 3-[4-[(5-amidino-2-benzofuranyl)carbonylamino]-piperidino]propionate]",160
15,"CCOC(=O)CCN1CCC(OC(=O)c2cc3cc(C(=N)N)ccc3o2)CC1 [Compound 193, Ethyl 3-[4-[(5-amidino-2-benzofuranyl)carbonyloxy]piperidino]propionate]",320
16,"CCOC(=O)CN(CC(=O)OCC)[C@H]1CC[C@H](NC(=O)c2cc3cc(C(=N)N)ccc3o2)CC1 [Compound 202, Diethyl trans-[4-[(5-amidino-2-benzofuranyl)carbonylamino]cyclohexylamino]diacetate]",230
17,"CC(C)(C)OC(=O)CN(CC(=O)OC(C)(C)C)[C@H]1CC[C@H](NC(=O)c2cc3cc(C(=N)N)ccc3o2)CC1 [Compound 203, di-t-butyl trans-[4-[(5-amidino-2-benzofuranyl)-carbonylamino]cyclohexylamino]diacetate]",1750
18,"CCOC(=O)CO[C@H]1CC[C@H](NC(=O)c2cc3ccc(C(=N)N)cc3[nH]2)CC1 [Compound 209, Ethyl trans-[4-[(6-Amidino-2-indolyl)carbonylamino]cyclohexyloxy]acetate]",100

# Other lines, results leading:
row,IC50 [nM],Compound
1,30,"N=C(N)c1ccc2oc(C(=O)Nc3ccc(OCC(=O)O)cc3)cc2c1 [Compound 10, 4-[(5-Amidino-2-benzofuranyl)carbonylamino]phenoxyacetic acid]"
2,40,"Cc1c(C(=O)Nc2ccc(OCC(=O)O)cc2)oc2ccc(C(=N)N)cc12 [Compound 16, 4-[(5-Amidino-3-methyl-2-benzofuranyl)carbonylamino]phenoxyacetic acid]"
3,30,"N=C(N)c1ccc2oc(C(=O)Nc3ccc(OCC(=O)O)c(OCC(=O)O)c3)cc2c1 [Compound 29, [[4-[(5-Amidino-2-benzofuranyl)carbonylamino]-o-phenylene]dioxy]diacetic acid]"
4,40,"N=C(N)c1ccc2oc(C(=O)Nc3ccc(CCC(=O)O)cc3)cc2c1 [Compound 37, 3-[4-[(5-Amidino-2-benzofuranyl)carbonylamino]phenyl]propionate]"
5,60,"N=C(N)c1ccc2oc(C(=O)Nc3ccc(C[C@H](N)C(=O)O)cc3)cc2c1 [Compound 46, (S)-3-[4 [(5-Amidino-2-benzofuranyl)carbonylamino]phenyl]-2-aminopropionic acid]"
6,10,"CCCCS(=O)(=O)NC(Cc1ccc(NC(=O)c2cc3cc(C(=N)N)ccc3o2)cc1)C(=O)O (stereo not shown) [Compound 48, 3-[4-[(5-Amidino-2-benzofuranyl)carbonylamino]phenyl]-2-(n-butylsulfonylamino)propionic acid]"
7,70,"N=C(N)c1ccc2oc(C(=O)Nc3ccc(C[C@H](NS(=O)(=O)C(F)(F)F)C(=O)O)cc3)cc2c1 [Compound 55, (S)-3-[4-[(5-Amidino-2-benzofuranyl)carbonylamino]phenyl]-2-(trifluoromethylsulfonylamino)propionic acid]"
8,30,"N=C(N)c1ccc2oc(C(=O)Nc3ccc(C[C@H](NC(=O)COC4CCNCC4)C(=O)O)cc3)cc2c1 [Compound 56, (S)-3-[4-[(5-Amidino-2-benzofuranyl)carbonylamino]phenyl]2-[(4-piperidinyloxy)acetylamino]propionic acid]"
9,30,"COc1ccc(CCC(=O)N[C@@H](Cc2ccc(NC(=O)c3cc4cc(C(=N)N)ccc4o3)cc2)C(=O)O)cc1 [Compound 61, (S)-3-[4-[(5-Amidino-2-benzofuranyl)carbonylamino]phenyl]-2-[3-(4-methoxyphenyl)propionylamino]propionic acid]"
10,60,"N=C(N)c1ccc2cc(C(=O)Nc3ccc(OCC(=O)O)cc3)[nH]c2c1 [Compound 95, 4-[(6-Amidino-2-indolyl)carbonylamino]phenoxyacetic acid]"
11,20,"N=C(N)c1ccc2cc(C(=O)Nc3ccc(OCC(=O)O)cc3)sc2c1 [Compound 135, 4-[(6-Amidinobenzo[b]thien-2-yl)carbonylamino]phenoxyacetic acid]"
12,10,"N=C(N)c1ccc2oc(C(=O)NC3CCC(CCC(=O)O)CC3)cc2c1 (stereo not shown) [Compound 165, 3-[4-[(5-Amidino-2-benzofuranyl)carbonylamino]cyclohexyl]propionic acid]"
13,6,"N=C(N)c1ccc2oc(C(=O)N[C@H]3CC[C@H](CCC(=O)O)CC3)cc2c1 [Compound 167, trans-3-[4-[(5-amidino-2-benzofuranyl)carbonylamino]cyclohexyl]propionic acid]"
14,10,"N=C(N)c1ccc2oc(C(=O)N[C@H]3CC[C@H](OCC(=O)O)CC3)cc2c1 [Compound 179, trans-[4-[(5-Amidino-2-benzofuranyl)carbonylamino]cyclohexyloxy]acetic acid]"
15,30,"Cc1c(C(=O)N[C@H]2CC[C@H](OCC(=O)O)CC2)oc2ccc(C(=N)N)cc12 [Compound 182, trans-[4-[(5-Amidino-3-methyl-2-benzofuranyl)carbonylamino]cyclohexyloxy]acetic acid]"
16,20,"N=C(N)c1ccc2oc(C(=O)NC3CCN(CCC(=O)O)CC3)cc2c1 [Compound 192, 3-[4-[(5-amidino-2-benzofuranyl)carbonylamino]piperidino]propionic acid]"
17,20,"N=C(N)c1ccc2oc(C(=O)N[C@H]3CC[C@H](NCC(=O)O)CC3)cc2c1 [Compound 195, trans-[4-[(5-Amidino-2-benzofuranyl)carbonylamino]cyclohexylamino]acetic acid]"
18,9,"N=C(N)c1ccc2oc(C(=O)N[C@H]3CC[C@H](N(CC(=O)O)CC(=O)O)CC3)cc2c1 [Compound 204, trans-[4-[(5-Amidino-2-benzofuranyl)carbonylamino]cyclohexylamino]diacetic acid]"
19,30,"N=C(N)c1ccc2cc(C(=O)N[C@H]3CC[C@H](OCC(=O)O)CC3)[nH]c2c1 [Compound 212, trans-[4-[(6-Amidino-2-indolyl)carbonylamino]cyclohexyloxy]acetic acid]"
20,20,"N=C(N)c1ccc2cc(C(=O)N[C@H]3CC[C@H](OCC(=O)O)CC3)sc2c1 [Compound 232, trans-[4-[(6-Amidinobenzo[b]thien-2-yl)carbonylamino]cyclohexyloxy]acetic acid]"
21,10,"N=C(N)c1cnc2oc(C(=O)Nc3ccc(OCC(=O)O)cc3)cc2c1 [Compound 239, 4-(5-Amidinofuro[2,3-b]pyridine-2-carbonylamino)-phenoxyacetic acid]"
22,30,"N=C(N)c1cnc2oc(C(=O)Nc3ccc(OCC(=O)O)nc3)cc2c1 [Compound 246, 5-(5-Amidinofuro[2,3-b]pyridine-2-carbonylamino)-2-pyridyloxyacetic acid]"
